Data taken from patent publication US20240287071A1, “CLASS OF IMIDAZOLIDINOPYRIMIDONE COMPOUNDS AND USE THEREOF IN TREATMENT OF HSCLPP-MEDIATED DISEASES” (SICHUAN UNIVERSITY, priority 2021, published 2024).
Read-outs that look alike come from different tables or passages of the source.

Legend:
HsClpP = HsClpP (Homo sapiens, UniProt Q16740); test: HsClpP enzyme hydrolysis of short peptide substrate AC-WLA-AMC; conditions: for Regulatory efficacy 1 μM / Regulatory efficacy 10 μM: promoting hydrolysis of short peptide substrate by HsClpP, relative to blank control
HCT116 = test: CCK-8 in vitro anti-tumor proliferation assay; format: cell-based; conditions: Homo sapiens, HCT-116, 72 hours
Experimental: (§1) Example 3: In vitro anti-tumor proliferation assay of the compounds. The purpose of this experiment was to use CCK-8 to detect the in vitro inhibitory activity of the compounds of the present invention against the proliferation of tumor cells. The main reagents, such as RPMI-1640, DMEM high-glucose culture medium, fetal bovine serum, trypsin, etc., were purchased from Gibco BRL. CCK8 and DMSO were products of Sigma. For in vitro experiment, the test compounds were prepared as 10 mM stock solutions in DMSO and stored at −20° C. in the refrigerator in the dark for later use, then diluted to desired concentration with complete culture medium before use. The human lung cancer cells, colon cancer cells, breast cancer cells, glioblastoma cells, human myelomonocytic leukemia cells, and human Burkitt's lymphoma cells used in this experiment were all purchased from the American ATCC company and preserved in laboratory of the inventors. All the above cell lines were cultured in RPMI-1640 complete medium or DMEM complete medium containing 10% fetal bovine serum, 100 U/mL penicillin, and 100 μg/mL streptomycin under 5% carbon dioxide, 37° C. conditions. […] The previous culture medium was discarded, fresh culture medium was added to resuspend the cells, and then the cells were counted. According to the growth rate of different cells, the cell seeding concentration was determined, generally being 3000-5000 cells/well. After determining the seeding concentration, the cell suspension was diluted to desired concentrations with fresh culture medium, and then added to a 96-well plate with 100 μL per well, and 200 μL of PBS was added to the edge wells to prevent evaporation of the culture medium. On the second day, drug treatment was performed. First, the compounds were diluted into a series of gradients with culture medium, and then the drug solution was added to the 96-well plate, with 3 parallel wells for each gradient. Each plate set a blank control group, and ONC201 was used as the positive control group.

DLD1 = test: CCK-8 in vitro anti-tumor proliferation assay; format: cell-based; conditions: Homo sapiens, DLD-1; Table 4; 72 hours; read-out: IC50 ( M) DLD1
Experimental: as §1

HT29 = test: CCK-8 in vitro anti-tumor proliferation assay; format: cell-based; conditions: Homo sapiens, HT-29; Table 4; 72 hours
Experimental: as §1

SW620 = test: CCK-8 in vitro anti-tumor proliferation assay; format: cell-based; conditions: Homo sapiens, SW-620; Table 4; 72 hours; read-out: IC50 ( M) SW620
Experimental: as §1

HCT115 = test: CCK-8 in vitro anti-tumor proliferation assay; format: cell-based; conditions: Homo sapiens; Table 4; 72 hours
Experimental: as §1

SW480 = test: CCK-8 in vitro anti-tumor proliferation assay; format: cell-based; conditions: Homo sapiens, Table 4, 72 hours
Experimental: as §1

[1] = Table 5, HCT116, read-out: IC50
[2] = Table 4, read-out: IC50 ( M) HCT116

Chain of HsClpP (Q16740 57-277): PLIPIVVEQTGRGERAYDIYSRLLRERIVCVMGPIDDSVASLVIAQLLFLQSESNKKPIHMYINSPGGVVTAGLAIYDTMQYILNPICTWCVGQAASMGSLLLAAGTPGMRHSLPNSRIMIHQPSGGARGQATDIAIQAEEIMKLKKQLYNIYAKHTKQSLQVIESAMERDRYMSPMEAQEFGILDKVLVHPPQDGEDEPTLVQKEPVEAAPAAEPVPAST

| Regulatory efficacy 1 μM (HsClpP) | Regulatory efficacy 10 μM (HsClpP) | IC50 (HCT116; [1]) | EC50 (HsClpP) | IC50 (DLD1) | IC50 (HT29) | IC50 (SW620) | IC50 (HCT115) | IC50 (SW480) | IC50 (HCT116; [2]) | SMILES |
| --- | --- | --- | --- | --- | --- | --- | --- | --- | --- | --- |
| + + | + + | 1.2e-06 M |  |  |  |  |  |  |  | COc1ccc(CN2CCn3c2nc(=O)c2c3CCN(Cc3ccccc3)C2)cc1 [Compound 14, 7-benzyl-3-(4-methoxybenzyl)-2,3,6,7,8,9-hexahydroimidazo[1,2-a]pyrido[3,4-e]pyrimidin-5(1H)-one] |
| + + | + + | 8e-08 M | 100 nM | 9e-08 M | 400 nM | 1.9e-07 M | 200 nM | 170 nM | 8e-08 M | O=c1nc2n(c3c1CN(Cc1ccccc1)CC3)CCN2Cc1ccc(F)cc1 [Compound 15, 7-benzyl-3-(4-fluorobenzyl)-2,3,6,7,8,9-hexahydroimidazo[1,2-a]pyrido[3,4-e]pyrimidin-5(1H)-one] |
| + + | + + | 8e-08 M |  | 1e-07 M | 70 nM | 1.7e-07 M | 250 nM | 100 nM | 8e-08 M | O=c1nc2n(c3c1CN(Cc1ccccc1)CC3)CCN2Cc1ccc(Cl)cc1 [Compound 16, 7-benzyl-3-(4-chlorobenzyl)-2,3,6,7,8,9-hexahydroimidazo[1,2-a]pyrido[3,4-e]pyrimidin-5(1H)-one] |
| + + | + + | 5e-07 M |  |  |  |  |  |  |  | O=c1nc2n(c3c1CN(Cc1ccccc1)CC3)CCN2Cc1ccc(Br)cc1 [Compound 17, 7-benzyl-3-(4-bromobenzyl)-2,3,6,7,8,9-hexahydroimidazo[1,2-a]pyrido[3,4-e]pyrimidin-5(1H)-one] |
| + + | + + | 8e-08 M |  |  |  |  |  |  |  | O=c1nc2n(c3c1CN(Cc1ccccc1)CC3)CCN2Cc1ccc(Br)c(F)c1 [Compound 22, 7-benzyl-3-(4-bromo-3-fluorobenzyl)-2,3,6,7,8,9-hexahydroimidazo[1,2-a]pyrido[3,4-e]pyrimidin-5 (1H)-one] |
| + + | + + | 3e-08 M |  |  |  |  |  |  |  | O=c1nc2n(c3c1CN(Cc1ccccc1)CC3)CCN2Cc1ccc(Cl)c(Cl)c1 [Compound 26, 7-benzyl-3-(3,4-dichlorobenzyl)-2,3,6,7,8,9-hexahydroimidazo[1,2-a]pyrido[3,4-e]pyrimidin-5(1H)-one] |
| + + | + + | 1.5e-06 M |  |  |  |  |  |  |  | Cc1cccc(CN2CCc3c(c(=O)nc4n3CCN4Cc3ccccc3C)C2)c1 [Compound 32, 3-(2-methylbenzyl)-7-(3-methylbenzyl)-2,3,6,7,8,9-hexahydroimidazo[1,2-a]pyrido[3,4-e]pyrimidin-5(1H)-one] |
| + + | + + | 5e-07 M |  |  |  |  |  |  |  | Cc1ccccc1CN1CCn2c1nc(=O)c1c2CCN(Cc2cccc(C#N)c2)C1 [Compound 35, 3-((3-(2-methylbenzyl)-5-oxo-2,3,6,7,8,9-hexahydroimidazo[1,2-a]pyrido[3,4-e]pyrimidin-7(6H)-yl)methyl)benzonitrile] |

| SMILES | Regulatory efficacy 1 μM (HsClpP) | Regulatory efficacy 10 μM (HsClpP) | IC50 (HCT116; [1]) | EC50 (HsClpP) | IC50 (DLD1) | IC50 (HT29) | IC50 (SW620) | IC50 (HCT115) | IC50 (SW480) | IC50 (HCT116; [2]) |
| --- | --- | --- | --- | --- | --- | --- | --- | --- | --- | --- |
| CCN1CCc2c(c(=O)nc3n2CCN3Cc2ccccc2C)C1 [Compound 28, 7-ethyl-3-(2-methylbenzyl)-2,3,6,7,8,9-hexahydroimidazo[1,2-a]pyrido[3,4-e]pyrimidin-5(1H)-one] | + (+ indicating that the increased efficacy is less than 50% of the blank control group) | + (+ indicating that the increased efficacy is less than 50% of the blank control group) | > 1e-05 M |  |  |  |  |  |  |  |
| Cc1ccccc1CN1CCn2c1nc(=O)c1c2CCN(C(=O)c2ccccc2)C1 [Compound 39, 7-benzoyl-3-(2-methylbenzyl)-2,3,6,7,8,9-hexahydroimidazo[1,2-a]pyrido[3,4-e]pyrimidin-5(1H)-one] | + (+ indicating that the increased efficacy is less than 50% of the blank control group) | + (+ indicating that the increased efficacy is less than 50% of the blank control group) | > 1e-05 M |  |  |  |  |  |  |  |
